Bounds are passed on as bounds.

In data set [1] the target is T1, human 5-HT2C (Homo sapiens, UniProt P28335).
T1 construct: expressed in transfected cells; membranes prepared
T1 sequence (P28335 33-458): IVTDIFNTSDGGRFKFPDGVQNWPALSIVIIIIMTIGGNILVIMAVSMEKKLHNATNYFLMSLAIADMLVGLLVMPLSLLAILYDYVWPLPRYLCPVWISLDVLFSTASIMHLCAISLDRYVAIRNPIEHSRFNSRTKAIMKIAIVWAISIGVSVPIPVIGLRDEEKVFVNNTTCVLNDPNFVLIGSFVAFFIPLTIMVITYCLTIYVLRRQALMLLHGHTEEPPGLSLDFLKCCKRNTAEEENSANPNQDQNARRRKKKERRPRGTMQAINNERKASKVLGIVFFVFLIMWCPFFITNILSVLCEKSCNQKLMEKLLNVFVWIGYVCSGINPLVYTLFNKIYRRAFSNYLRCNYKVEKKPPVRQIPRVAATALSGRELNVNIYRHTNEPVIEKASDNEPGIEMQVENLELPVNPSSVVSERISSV
Nature of the data set: Receptor binding assay, inhibition of [3H]-ligand binding to human 5-HT2C. The settings on record: [3H]mesulergine 2 nM, CHO cell membranes, 37°C, 40 min. As to the method: (§1) Cells stably expressing the human homologs of the receptors (dopamine D2L, serotonin 5HT2A and 5HT2C, α1A adrenergic; cloned and expressed at Hoechst Marion Roussel; Grandy et al., 1989: Monsma et al., 1993; Schwinn et al., 1995) were grown: cell membranes were prepared, and kept frozen until used (Kongsamut et al., 1996). […] All binding parameters were optimized at Hoechst Marion Roussel; ligand KdS were determined using both saturation analysis (Scatchard) as well as kinetic analysis (association and dissociation rates). Each batch of membrane was validated by checking the ligand Kd, and rank order of potency of selected standard compounds. Assays for the serotonin 5HT2A and dopamine D2L receptors were conducted at 37°C in a Tris buffer containing salts (50 mM Tris Buffer, pH 7.7; 120 mM NaCl; 5 mM KCI; 2 mM CaCl2; 1 mM MgCl2), while the serotonin 5-HT2C and α1A adrenergic receptor assays used a different buffer without salts (50 mM Tris, 4 mM CaCl2 and 1% ascorbate, pH 7.4). […]
(§2) Membranes were rapidly thawed and diluted to an appropriate concentration (between 20 - 150 µg protein/assay point depending on receptor expression level) in Tris buffer and homogenized. […] Microscint scintillation cocktail (40 µl) were added and the filter plates were counted in a Packard Top Count scintillation counter.

Data set [2] deals with T2, human D2L (Homo sapiens, UniProt P14416).
T2 construct: expressed in transfected cells; membranes prepared
T2 sequence (P14416 whole entry): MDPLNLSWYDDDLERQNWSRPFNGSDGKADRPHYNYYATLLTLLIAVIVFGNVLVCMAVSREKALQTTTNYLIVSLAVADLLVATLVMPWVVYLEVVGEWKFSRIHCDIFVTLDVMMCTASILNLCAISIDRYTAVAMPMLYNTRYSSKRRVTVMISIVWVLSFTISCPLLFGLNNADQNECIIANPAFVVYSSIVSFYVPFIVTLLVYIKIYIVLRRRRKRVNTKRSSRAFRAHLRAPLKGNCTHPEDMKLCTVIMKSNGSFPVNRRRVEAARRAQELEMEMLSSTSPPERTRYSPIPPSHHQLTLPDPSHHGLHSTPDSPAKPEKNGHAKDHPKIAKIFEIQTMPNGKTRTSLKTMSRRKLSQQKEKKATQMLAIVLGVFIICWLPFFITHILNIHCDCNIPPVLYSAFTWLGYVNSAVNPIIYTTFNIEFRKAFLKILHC
As to the kind of experiment: Receptor binding assay, inhibition of [3H]-ligand binding to human D2L. The settings on record: [3H]N-methyl spiperone 1 nM, CHO cell membranes, 37°C, 60 min; read-out: D2(Ki µM). As to the method:
as §1, §2

Data set [3] addresses T3, human 5-HT2A (Homo sapiens, UniProt P28223).
T3 construct: expressed in transfected cells; membranes prepared
As to the kind of experiment: Receptor binding assay, inhibition of [3H]-ligand binding to human 5-HT2A. As to the method: Cells stably expressing the human homologs of the receptors (dopamine D2L, serotonin 5HT2A and 5HT2C, α1A adrenergic; cloned and expressed at Hoechst Marion Roussel; Grandy et al., 1989: Monsma et al., 1993; Schwinn et al., 1995) were grown: cell membranes were prepared, and kept frozen until used (Kongsamut et al., 1996). The relevance of these binding sites has been extensively discussed in the literature (see for example: Carlsson & Carlsson. 1990; Creese et al., 1976; Gorman & Vargas, 1995; Meltzer et al., 1989). All binding parameters were optimized at Hoechst Marion Roussel; ligand KdS were determined using both saturation analysis (Scatchard) as well as kinetic analysis (association and dissociation rates). Each batch of membrane was validated by checking the ligand Kd, and rank order of potency of selected standard compounds. […]
Membranes were rapidly thawed and diluted to an appropriate concentration (between 20 - 150 µg protein/assay point depending on receptor expression level) in Tris buffer and homogenized. […] Microscint scintillation cocktail (40 µl) were added and the filter plates were counted in a Packard Top Count scintillation counter. Data were analyzed to determine Ki's for compounds of interest (Prusoff & Cheng, […]).Table: Receptor Binding Parameters. […]

In data set [4] the target is T4, human α1A (Homo sapiens, UniProt P35348).
T4 construct: expressed in transfected cells; membranes prepared
T4 sequence (P35348 1-466): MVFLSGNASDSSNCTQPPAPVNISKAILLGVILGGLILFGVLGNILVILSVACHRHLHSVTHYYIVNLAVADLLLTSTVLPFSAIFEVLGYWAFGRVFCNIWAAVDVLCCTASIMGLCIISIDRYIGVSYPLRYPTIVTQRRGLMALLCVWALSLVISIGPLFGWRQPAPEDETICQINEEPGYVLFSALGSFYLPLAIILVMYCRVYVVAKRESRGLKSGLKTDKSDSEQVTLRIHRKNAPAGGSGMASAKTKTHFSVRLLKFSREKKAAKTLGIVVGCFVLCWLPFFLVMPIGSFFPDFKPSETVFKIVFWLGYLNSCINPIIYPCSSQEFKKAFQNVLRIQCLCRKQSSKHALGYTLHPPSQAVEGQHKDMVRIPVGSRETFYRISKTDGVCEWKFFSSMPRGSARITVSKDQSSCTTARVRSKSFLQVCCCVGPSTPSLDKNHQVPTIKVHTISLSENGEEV
Nature of the data set: Receptor binding assay, inhibition of [3H]-ligand binding to human α1A. The note with it: [3H]prazosin 1 nM, CHO cell membranes, 37°C, 40 min. As to the method: as §1, §2

Data set [5] is described as follows: Bovine Brain Endothelial Cells (BBMEC) transport study, in vitro BBB permeability. Type of data set: in vitro ADME. The settings on record: BBMEC monolayer, mean ± standard deviation. How it is done: The compounds of this invention are capable of crossing the blood-brain barrier (BBB) as shown by their ability to penetrate across a membrane of a monolayer of bovine brain microvessel endothelial cells, an in vitro model for BBB permeability.
The procedure was performed according to: Kenneth L. Audus et al., Brain Microvessel Endothelial Cell Culture System (Chapter 13) pp 239-258. In Models for Assessing Drug Absorption and Metabolism, Ronald T. Borchardt et al. eds., Plenum Press, New York 1996.

T3 sequence (P28223 whole entry): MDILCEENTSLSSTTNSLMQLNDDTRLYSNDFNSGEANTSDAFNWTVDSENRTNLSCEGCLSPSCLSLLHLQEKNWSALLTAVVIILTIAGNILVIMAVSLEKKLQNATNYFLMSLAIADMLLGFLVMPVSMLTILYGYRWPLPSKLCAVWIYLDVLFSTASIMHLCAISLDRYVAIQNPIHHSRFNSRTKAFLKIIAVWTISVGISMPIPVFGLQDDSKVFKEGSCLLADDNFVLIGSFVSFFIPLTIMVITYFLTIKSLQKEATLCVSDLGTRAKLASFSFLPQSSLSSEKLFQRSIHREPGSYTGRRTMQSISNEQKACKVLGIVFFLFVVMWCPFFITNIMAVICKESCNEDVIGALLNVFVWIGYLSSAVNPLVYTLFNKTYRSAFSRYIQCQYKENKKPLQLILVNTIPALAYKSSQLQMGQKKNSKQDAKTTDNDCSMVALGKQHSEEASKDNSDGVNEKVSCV

Broadly, the Ki is the dissociation constant of the complex between target and ligand, obtained from inhibition or displacement. What is called Papp is a coefficient for how fast a substance crosses the barrier. With `COc1c(OS(=O)(=O)O)cccc1C(O)C1CCN(CCc2ccc(F)cc2)CC1` (single isomer, unassigned) [Example 1H, Sulfuric acid mono-(+)-(3-(-{1-[2-(4-fluoro-phenyl)-ethyl]-piperidin-d-yl}-hydroxy-methyl)-2-methoxy-phenyl] ester], the inhibitory constant (Ki) in data set [1] is > 1 µM; in data set [2], > 1 µM; in data set [3] ([3H]N-methyl spiperone 1.5 nM, BHK cell membranes, 37°C, 40 min) it was 0.16 µM; in data set [4], > 1 µM. The apparent permeability coefficient (Papp) at 5.4 µM in data set [5] was 414 ± 164 nm/s. In data set [5], this compound had a Papp at 16 µM of 525 ± 95 nm/s.
As for `OC[C@@H](O)[C@@H](O)[C@H](O)[C@H](O)CO` [Mannitol, reference compound], in data set [5], the apparent permeability coefficient (Papp) at 5.4 µM is 276 ± 23 nm/s and the apparent permeability (Papp) at 16 µM amounted to 276 ± 23 nm/s.
Broadly, the Kd is the constant that tells how readily two partners part at equilibrium. Lower therefore signals a tighter complex. With `CN1CN(c2ccccc2)C2(CCN(CCCC(=O)c3ccc(F)cc3)CC2)C1=O` [[^3H]N-methyl spiperone, reference compound], in data set [3] (radioligand Kd at human 5-HT2A, BHK, saturation (Scatchard) and kinetic analysis), the Kd came out at 0.00092 µM.

The record behind these values is patent publication EP1202967B1, “SULFURIC ACID MONO-[3-({1-[2-(4-FLUORO-PHENYL)-ETHYL]-PIPERIDIN-4-YL}-HYDROXY-METHYL)-2-METHOXY-PHENYL]ESTER” (AVENTIS PHARMACEUTICALS INC., priority 1999, dated 2001).
